According to article PMC9511441, “Semisynthetic teicoplanin derivatives with dual antimicrobial activity against SARS-CoV-2 and multiresistant bacteria” (Scientific Reports, 2022):
≈ marks a conversion by molar mass, not a printed value. Like-named read-outs stand apart in the source and are kept apart here.

Key:
Assay type in all cases: cell-based
SARS-CoV-2 pseudovirus [1] = assay: microbe, parasite or virus in culture; conditions: Severe acute respiratory syndrome-related coronavirus; Vero cells, luciferase signal, mean ± SEM of 3 tests; read-out: EC50, inhibition of SARS-CoV-2 pseudovirus entry in Vero cells
SARS-CoV-2 pseudovirus [2] = assay: microbe, parasite or virus in culture; conditions: Severe acute respiratory syndrome-related coronavirus; A549-AT cells (ACE2 and TMPRSS2), luciferase signal, mean ± SEM of 3 tests; read-out: EC50, inhibition of SARS-CoV-2 pseudovirus entry in A549-AT cells
E. faecalis = assay: MIC, broth microdilution; conditions: Enterococcus faecalis
From the text: (§1) We determined the minimal inhibitory concentrations (MIC) of the teicoplanin conjugates for a large panel of Gram-positive bacterial strains, using vancomycin, unmodified teicoplanin, dalbavancin and oritavancin as reference compounds. […] The bacterial strains (see Suppl. Table S5 for all details) were selected to achieve maximum diversity of multidrug-resistance and include strains with known mechanisms of resistance to glycopeptides in clinical use. The S. epidermidis and S. haemolyticus strains resistant to dalbavancin and oritavancin were obtained in vitro from clinical isolates sensitive to the glycopeptide antibiotics.

S. aureus = assay: MIC, broth microdilution; conditions: Staphylococcus aureus
From the text: as §1

S. haemolyticus = assay: MIC, broth microdilution; conditions: Staphylococcus haemolyticus
From the text: as §1

S.pyogenes = assay: MIC, broth microdilution; conditions: Streptococcus pyogenes
From the text: as §1

E. faecium = assay: microbe, parasite or virus in culture; conditions: Enterococcus faecium
From the text: as §1

S. epidermidis = assay: microbe, parasite or virus in culture; conditions: Staphylococcus epidermidis
From the text: as §1

## CN(C)C(=O)COC(=O)Cc1ccc(OC(=O)c2ccc(NC(=N)N)cc2)cc1 [Camostat, camostat, reference compound]
SARS-CoV-2 pseudovirus [1]
  EC50: > 20 µM
SARS-CoV-2 pseudovirus [2]
  EC50: 0.49 ± 0.05 µM

## CN[C@H](CC(C)C)C(=O)N[C@H]1C(=O)N[C@@H](CC(N)=O)C(=O)N[C@H]2C(=O)N[C@H]3C(=O)N[C@H](C(=O)N[C@H](C(=O)O)c4cc(O)cc(O)c4-c4cc3ccc4O)[C@H](O)c3ccc(c(Cl)c3)Oc3cc2cc(c3O[C@@H]2O[C@H](CO)[C@@H](O)[C@H](O)[C@H]2O[C@H]2C[C@](C)(N)[C@H](O)[C@H](C)O2)Oc2ccc(cc2Cl)[C@H]1O [VAN, vancomycin, reference compound]
E. faecalis; read-out: Average MIC value, E. faecalis VAN^R,TEI^R/VanA, 1 strain
  MIC: > 64 µg/mL
E. faecalis; read-out: Average MIC value, E. faecalis VAN^S, TEI^S, 2 strains
  MIC: 0.25 µg/mL (≈ 0.173 µM)
E. faecalis; read-out: MIC value, E.faecalis JH2-2
  MIC: 0.25 µg/mL (≈ 0.173 µM)
E. faecalis; read-out: MIC value, E.faecalis OG1RF
  MIC: 0.25 µg/mL (≈ 0.173 µM)
E. faecalis; read-out: MIC value, E.faecalis V583, VAN,TEI/VanA
  MIC: > 64 µg/mL
S. aureus; ATCC 29213 / MSSA, read-out: MIC value, S. aureus ATCC29213, MSSA
  MIC: 1 µg/mL (≈ 0.69 µM)
S. aureus; MRSA / USA300, read-out: MIC value, S. aureus USA300, CA-MRSA
  MIC: 0.25 µg/mL (≈ 0.173 µM)
S. aureus; MRSA, read-out: Average MIC value, S. aureus CA-MRSA, 1 strain
  MIC: 0.25 µg/mL (≈ 0.173 µM)
S. aureus; MRSA, read-out: Average MIC value, S. aureus MRSA, 7 strains
  MIC: 1.25 µg/mL (≈ 0.863 µM)
S. aureus; MRSA, read-out: MIC value, S. aureus 73OL, MRSA
  MIC: 1 µg/mL (≈ 0.69 µM)
S. aureus; MRSA, read-out: MIC value, S. aureus 214OL, MRSA
  MIC: 1 µg/mL (≈ 0.69 µM)
S. aureus; MRSA, read-out: MIC value, S. aureus 1041OL, MRSA
  MIC: 1 µg/mL (≈ 0.69 µM)
S. aureus; MRSA, read-out: MIC value, S. aureus A6918, MRSA
  MIC: 1 µg/mL (≈ 0.69 µM)
S. aureus; MRSA, read-out: MIC value, S. aureus A6919, MRSA
  MIC: 0.25 µg/mL (≈ 0.173 µM)
S. aureus; MRSA, read-out: MIC value, S. aureus Mu50, MRSA
  MIC: 4 µg/mL (≈ 2.76 µM)
S. aureus; MRSA, read-out: MIC value, S. aureus N315, MRSA
  MIC: 0.5 µg/mL (≈ 0.345 µM)
S. aureus; MSSA / NEWMAN, read-out: MIC value, S. aureus Newman, MSSA
  MIC: 0.5 µg/mL (≈ 0.345 µM)
S. aureus; MSSA, read-out: Average MIC value, S. aureus MSSA, 4 strains
  MIC: 0.625 µg/mL (≈ 0.431 µM)
S. aureus; MSSA, read-out: MIC value, S. aureus MSSA476, MSSA
  MIC: 0.5 µg/mL (≈ 0.345 µM)
S. aureus; MSSA, read-out: MIC value, S. aureus SA564, MSSA
  MIC: 0.5 µg/mL (≈ 0.345 µM)
S. haemolyticus; S. haemolyticus mecA, 6 strains, read-out: Average MIC value
  MIC: 28 µg/mL (≈ 19.3 µM)
S. haemolyticus; S.haemolyticus DALB_R1, mecA, read-out: MIC value
  MIC: 32 µg/mL (≈ 22.1 µM)
S. haemolyticus; S.haemolyticus DALB_R2, mecA, read-out: MIC value
  MIC: 64 µg/mL (≈ 44.2 µM)
S. haemolyticus; S.haemolyticus DALB_R3, mecA, read-out: MIC value
  MIC: 8 µg/mL (≈ 5.52 µM)
S. haemolyticus; S.haemolyticus DALB_R4, mecA, read-out: MIC value
  MIC: 32 µg/mL (≈ 22.1 µM)
S. haemolyticus; S.haemolyticus DALB_R5, mecA, read-out: MIC value
  MIC: 16 µg/mL (≈ 11 µM)
S. haemolyticus; S.haemolyticus ORI_R1, mecA, read-out: MIC value
  MIC: 16 µg/mL (≈ 11 µM)
S.pyogenes; read-out: MIC value, S.pyogenes H232
  MIC: 0.0625 µg/mL (≈ 0.0431 µM)
S.pyogenes; read-out: MIC value, S.pyogenes H550
  MIC: 0.0625 µg/mL (≈ 0.0431 µM)
S.pyogenes; read-out: MIC value, S.pyogenes H578
  MIC: 0.0625 µg/mL (≈ 0.0431 µM)
E. faecium; read-out: Average MIC value, E. faecium VAN^R,TEI^R/VanA, 8 strains
  MIC: > 64 µg/mL
E. faecium; read-out: Average MIC value, E. faecium VAN^S, TEI^S, 1 strain
  MIC: 0.25 µg/mL (≈ 0.173 µM)
E. faecium; read-out: MIC value, E.faecium E335, VAN,TEI,LNZ/VanA
  MIC: > 64 µg/mL
E. faecium; read-out: MIC value, E.faecium E355, VAN,TEI,LNZ/VanA
  MIC: > 64 µg/mL
E. faecium; read-out: MIC value, E.faecium E832, VAN,TEI,LNZ/VanA
  MIC: > 64 µg/mL
E. faecium; read-out: MIC value, E.faecium E854, VAN,TEI,LNZ/VanA
  MIC: > 64 µg/mL
E. faecium; read-out: MIC value, E.faecium E859, VAN,TEI,LNZ/VanA
  MIC: > 64 µg/mL
E. faecium; read-out: MIC value, E.faecium E1114, VAN,TEI,LNZ/VanA
  MIC: > 64 µg/mL
E. faecium; read-out: MIC value, E.faecium E1131, VAN,TEI,LNZ/VanA
  MIC: > 64 µg/mL
E. faecium; read-out: MIC value, E.faecium E1132, VAN,TEI,LNZ/VanA
  MIC: > 64 µg/mL
E. faecium; read-out: MIC value, E.faecium TX0016
  MIC: 0.25 µg/mL (≈ 0.173 µM)
S. epidermidis; read-out: Average MIC value, S. epidermidis mecA, 6 strains
  MIC: 6.67 µg/mL (≈ 4.6 µM)
S. epidermidis; read-out: MIC value, S.epidermidis ORI_R1, mecA
  MIC: 8 µg/mL (≈ 5.52 µM)
S. epidermidis; read-out: MIC value, S.epidermidis ORI_R2, mecA
  MIC: 8 µg/mL (≈ 5.52 µM)
S. epidermidis; read-out: MIC value, S.epidermidis ORI_R3, mecA
  MIC: 8 µg/mL (≈ 5.52 µM)
S. epidermidis; read-out: MIC value, S.epidermidis ORI_R4, mecA
  MIC: 4 µg/mL (≈ 2.76 µM)
S. epidermidis; read-out: MIC value, S.epidermidis TEI_R1, mecA
  MIC: 4 µg/mL (≈ 2.76 µM)
S. epidermidis; read-out: MIC value, S.epidermidis TEI_R2, mecA
  MIC: 8 µg/mL (≈ 5.52 µM)
